Test results as given in US4490388A, “Amidine compound and anticomplement agent comprising same” (Torii & Co., Ltd., priority 1981, dated 1984).
Read-outs that look alike come from different tables or passages of the source.

Assays:
[1] = test system: complement; assay: Inhibition of complement mediated hemolysis; type: cell-based; details: read-out: Inhibition of complement mediated hemolysis (%)
Protocol: The complement mediated hemolysis is widely used as a means to determine the titration of complement. The principle of this method is based on the fact that hemolysis is caused by the activation of complement, when the latter is added to a complex (immune complex) of erythrocytes and the autibody thereof. The degree of hemolysis varies in proportion to the amount of complement added. Therefore, when a known amount of complement admixed with a C1 esterase inhibitor is used, the hemolysis must be suppressed in proportion to the inhibitory activity.
The anti-C1 esterase (C1r, C1s) activity was determined according to the method of Okamura et al. [K. Okamura, M. Muramatsu and B. Fujii, Biochem. Biophys. […] The inhibition of complement mediated hemolysis was determined according to the method of Baker et al. [B. R. Baker and E. H. Erickson, J. Med. Chem., 12, 408-414 (1969)].

[2] = biological target: T1, Trypsin (Bos taurus, UniProt P00760); assay: Anti-trypsin activity (hydrolysis of TAME); type: biochemical
T1 sequence (P00760 24-246): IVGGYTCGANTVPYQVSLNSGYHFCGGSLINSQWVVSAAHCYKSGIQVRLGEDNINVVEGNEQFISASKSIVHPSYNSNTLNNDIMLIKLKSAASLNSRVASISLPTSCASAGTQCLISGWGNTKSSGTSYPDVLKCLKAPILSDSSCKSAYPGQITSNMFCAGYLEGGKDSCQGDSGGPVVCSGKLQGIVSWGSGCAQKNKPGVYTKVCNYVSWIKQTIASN
Protocol: (§1) The anti-trypsin, anti-plasmin, anti-kallikrein and anti-thrombin activities were determined according to the method of Muramatsu et al. [M. Muramatsu, T. Onishi, S. Makino, Y. Hayashi and S. Fujii, J. of Biochem., 58, 214 (1965)]. The data summarized in Table 1 are expressed in terms of molar concentration (id50) of the test compound which inhibits 50% of the activity of each enzyme to hydrolyze TAME (tosylarginine methyl ester). The compound No. corresponds to the compound number shown in Examples.

[3] = biological target: Plasmin (Homo sapiens, UniProt P00747); assay: Anti-plasmin activity (hydrolysis of TAME); type: biochemical
Protocol: as §1

[4] = biological target: T2, C1r (Homo sapiens, UniProt P00736); assay: Anti-C1 esterase activity, C1r (hydrolysis of AAME); type: biochemical; details: for IC50: molar concentration inhibiting 50% of AAME hydrolysis, read-out: Anti-C1 activity, C1r id50; for inhibition at 10 µM: at 1×10^-5 M, read-out: Anti-C1 activity, C1r percent inhibition
T2 sequence (P00736 464-705 limits assumed): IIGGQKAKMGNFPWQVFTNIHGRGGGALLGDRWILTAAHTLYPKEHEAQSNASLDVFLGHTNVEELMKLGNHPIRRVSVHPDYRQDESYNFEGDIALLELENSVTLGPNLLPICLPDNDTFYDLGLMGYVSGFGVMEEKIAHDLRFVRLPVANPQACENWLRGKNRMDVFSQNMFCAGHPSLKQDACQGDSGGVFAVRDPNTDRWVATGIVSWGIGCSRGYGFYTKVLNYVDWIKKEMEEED
T2 sequence (P00736 18-463 partner limits assumed): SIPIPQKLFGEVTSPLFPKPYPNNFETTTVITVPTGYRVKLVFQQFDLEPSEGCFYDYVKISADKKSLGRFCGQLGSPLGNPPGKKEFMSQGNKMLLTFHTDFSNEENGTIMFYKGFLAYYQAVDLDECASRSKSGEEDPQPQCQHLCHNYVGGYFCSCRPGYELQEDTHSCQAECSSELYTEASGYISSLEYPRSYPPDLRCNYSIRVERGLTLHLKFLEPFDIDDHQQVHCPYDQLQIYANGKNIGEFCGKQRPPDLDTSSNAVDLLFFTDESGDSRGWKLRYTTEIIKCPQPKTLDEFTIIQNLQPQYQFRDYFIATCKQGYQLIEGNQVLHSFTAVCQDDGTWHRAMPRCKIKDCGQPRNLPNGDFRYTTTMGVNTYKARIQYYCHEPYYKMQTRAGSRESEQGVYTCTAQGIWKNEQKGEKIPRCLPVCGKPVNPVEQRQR
Protocol: The anti-C1 esterase (C1r, C1s) activity was determined according to the method of Okamura et al. [K. Okamura, M. Muramatsu and B. Fujii, Biochem. Biophys. […] The figures in Table 2 have the following meanings:
C1r: Molar concentration of the test compound which inhibits 50% of the ability of C1r to hydrolyse AAME (acetylarginin methyl ester) (id50).

[5] = biological target: Thrombin (Bos taurus, UniProt P00735); assay: Anti-thrombin activity (hydrolysis of TAME); type: biochemical
Protocol: as §1

[6] = molar concentration inhibiting 50% of TAME hydrolysis, read-out: id50, Trypsin
[7] = molar concentration inhibiting 50% of TAME hydrolysis, read-out: id50, Plasmin

Chain of Plasmin (P00747 581-810 limits assumed): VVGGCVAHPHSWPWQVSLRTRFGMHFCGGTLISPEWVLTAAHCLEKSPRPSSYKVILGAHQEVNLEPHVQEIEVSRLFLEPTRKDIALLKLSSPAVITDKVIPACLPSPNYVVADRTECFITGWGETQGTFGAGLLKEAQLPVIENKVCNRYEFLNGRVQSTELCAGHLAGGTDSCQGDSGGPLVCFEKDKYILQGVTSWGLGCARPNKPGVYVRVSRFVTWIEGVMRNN
Chain of Plasmin (P00747 97-580 partner limits assumed): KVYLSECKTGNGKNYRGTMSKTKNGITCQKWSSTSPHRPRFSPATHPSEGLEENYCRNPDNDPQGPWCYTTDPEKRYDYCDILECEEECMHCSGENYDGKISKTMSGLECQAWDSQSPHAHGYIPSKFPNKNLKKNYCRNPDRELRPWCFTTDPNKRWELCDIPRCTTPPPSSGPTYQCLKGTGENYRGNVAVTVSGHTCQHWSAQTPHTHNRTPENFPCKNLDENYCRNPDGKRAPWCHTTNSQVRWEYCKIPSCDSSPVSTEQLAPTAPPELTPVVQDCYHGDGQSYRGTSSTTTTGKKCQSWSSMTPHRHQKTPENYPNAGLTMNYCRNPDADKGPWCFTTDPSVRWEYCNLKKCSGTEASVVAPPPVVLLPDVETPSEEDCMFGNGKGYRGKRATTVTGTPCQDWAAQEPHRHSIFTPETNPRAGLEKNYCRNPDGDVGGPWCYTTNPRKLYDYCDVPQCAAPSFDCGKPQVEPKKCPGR

Row | Structure (SMILES) | inhibition at 100 µM ([1]; 1 × 10^-4 M) [%] | inhibition at 10 µM ([1]; 1 × 10^-5 M) [%] | inhibition at 1 µM ([1]; 1 × 10^-6 M) [%] | inhibition at 0.1 µM ([1]; 1 × 10^-7 M) [%] | inhibition at 10 µM [1] [%] | inhibition at 100 µM [1] [%] | inhibition at 0.1 µM [1] [%] | IC50 [2, 6] [µM] | IC50 [3, 7] [µM] | IC50 [4] [µM] | IC50 [2] [µM] | IC50 [3] [µM] | IC50 [5] [µM] | inhibition at 10 µM [4] [%] | inhibition at 1 µM [1] [%]
1 | CC(=O)Nc1ccc(C(=O)Oc2ccc(C=CC(=N)N)cc2)cc1 [Compound 31] | 98 | 91 | 65 | 25 |  |  |  |  |  |  |  |  |  |  | 
2 | N=C(N)C=Cc1ccc(OC(=O)c2ccc(CNC(=O)OCc3ccccc3)cc2)cc1 [Compound 33] |  |  | 29 | 7 | 89 | 92 |  |  |  |  |  |  |  |  | 
3 | N=C(N)C=Cc1ccc(OC(=O)CCCc2ccccc2)cc1 [Compound 16, 4-(β-amidinoethenyl)phenyl 4-phenylbutyrate] |  | 34 | 0 | 0 |  | 96 |  |  |  |  |  |  |  |  | 
4 | Cc1cccc(C(=O)Oc2ccc(C=CC(=N)N)cc2)c1 [Compound 19] | 95 | 98 | 65 |  |  |  | 37 |  |  |  |  |  |  |  | 
5 | N=C(N)C=Cc1ccc(OC(=O)C2CC2)cc1 [Compound 5, 4-(β-amidinoethenyl)phenyl cyclopropanecarboxylate] | 100 | 100 | 81 | 16 |  |  |  | 6 | 2 | 2 |  |  |  |  | 
6 | N=C(N)C=Cc1ccc(OC(=O)Cc2ccccc2)cc1 [Compound 13, 4-(β-amidinoethenyl)phenyl phenylacetate] |  |  |  |  | 31 | 99 | 0 |  |  |  | 1 | 10 | 5 | 21 | 6
7 | Cc1ccccc1C(=O)Oc1ccc(C=CC(=N)N)cc1 [Compound 18] | 91 | 38 | 12 | 0 |  |  |  |  |  |  |  |  |  |  | 
8 | N=C(N)C=Cc1ccc(OC(=O)C=Cc2ccccc2Cl)cc1 [Compound 40] | 15 |  | 0 | 0 | 3 |  |  |  |  |  |  |  |  |  | 
9 | N=C(N)C=Cc1ccc(OC(=O)CCCc2ccc([N+](=O)[O-])cc2)cc1 [Compound 38] | 98 | 76 | 27 | 7 |  |  |  |  |  |  |  |  |  |  | 
10 | CC=CC=CC(=O)Oc1ccc(C=CC(=N)N)cc1 [Compound 4] |  | 99 |  |  |  | 100 | 12 | 0.4 | 0.9 | 5 |  |  |  |  | 86
11 | CC(C)Cc1ccc(C(C)C(=O)Oc2ccc(C=CC(=N)N)cc2)cc1 (stereo not drawn) [Compound 14] | 0 | 74 | 10 | 0 |  |  |  | 9 | 8 |  |  |  | 8 | 38 | 
12 | CC(=O)Oc1ccc(C=CC(=N)N)cc1 [Compound 1, 4-(β-amidinoethenyl)phenyl acetate] |  | 71 | 64 |  |  | 99 | 10 |  |  |  |  |  |  |  | 
13 | N=C(N)C=Cc1ccc(OC(=O)C=Cc2ccccc2)cc1 [Compound 17, 4-(β-amidinoethenyl)phenyl cinnamate] | 93 | 97 |  | 58 |  |  |  |  |  |  |  |  |  |  | 83
14 | N=C(N)C=Cc1ccc(OC(=O)c2ccc(Cl)cc2)cc1 [Compound 39] | 100 | 99 | 89 | 71 |  |  |  | 2 | 4 | 0.5 |  |  | 2 |  | 
15 | COc1ccc(C(=O)Oc2ccc(C=CC(=N)N)cc2)cc1OC [Compound 24] | 76 | 20 | 8 | 0 |  |  |  |  |  |  |  |  |  |  | 
16 | N=C(N)C=Cc1ccc(OC(=O)c2ccc(C=O)cc2)cc1 [Compound 30] | 99 | 94 | 62 |  |  |  | 45 | 4 | 0.6 | 1 |  |  | 0.6 |  | 
17 | CCCCCCC(=O)Oc1ccc(C=CC(=N)N)cc1 [Compound 3] |  | 75 |  | 0 |  | 98 |  | > 10 | > 10 |  |  |  | > 10 | 28 | 
18 | CN(C)c1ccc(C(=O)Oc2ccc(C=CC(=N)N)cc2)cc1 [Compound 32] | 73 | 80 | 50 | 32 |  |  |  | 1 | > 10 | 10 |  |  | > 10 |  | 
19 | N=C(N)C=Cc1ccc(OC(=O)CCc2ccccc2)cc1 [Compound 15] |  | 10 |  | 0 |  | 80 |  | 2 | > 10 |  |  |  | > 10 | 10 | 2
20 | CC(C)CC(=O)Oc1ccc(C=CC(=N)N)cc1 [Compound 2, 4-(β-amidinoethenyl)phenyl isovalerate] | 99 | 90 |  | 8 |  |  |  |  |  |  |  |  |  |  | 30
21 | Cc1ccc(C(=O)Oc2ccc(C=CC(=N)N)cc2)cc1C [Compound 21] | 87 |  | 37 | 22 | 88 |  |  |  |  |  |  |  |  |  | 
22 | N=C(N)C=Cc1ccc(OC(=O)c2ccc(OCc3ccccc3)cc2)cc1 [Compound 26] | 38 | 14 | 6 | 0 |  |  |  | 0.2 | > 10 |  |  |  | > 10 | 37 | 
23 | N=C(N)C=Cc1ccc(OC(=O)C2CCCCC2)cc1 [Compound 6] | 99 | 93 | 14 | 0 |  |  |  |  |  |  |  |  |  |  | 
24 | N=C(N)C=Cc1ccc(OC(=O)c2ccc([N+](=O)[O-])cc2)cc1 [Compound 37] | 100 | 99 | 95 | 94 |  |  |  |  |  |  |  |  |  |  | 
25 | CCC(=Cc1ccc(NC(=N)N)cc1)C(=O)Oc1ccc(C=CC(=N)N)cc1 [Compound 36] | 93 |  | 8 | 0 | 40 |  |  | 5 | > 10 |  |  |  | 5 |  | 
26 | COC(=O)c1ccc(C(=O)Oc2ccc(C=CC(=N)N)cc2)cc1 [Compound 29] | 98 | 93 | 57 | 25 |  |  |  |  |  |  |  |  |  |  | 
27 | COc1ccc(CCC(=O)Oc2ccc(C=CC(=N)N)cc2)cc1 [Compound 25] | 62 | 0 | 0 | 0 |  |  |  |  |  |  |  |  |  |  | 
28 | COc1ccc(C(=O)Oc2ccc(C=CC(=N)N)cc2)cc1 [Compound 23] | 98 | 99 | 94 | 42 |  |  |  |  |  |  |  |  |  |  | 
29 | N=C(N)C=Cc1ccc(OC(=O)c2ccc3c(c2)OCO3)cc1 [Compound 27] | 100 | 99 | 88 | 44 |  |  |  |  |  |  |  |  |  |  | 
